Experimental data published in US20200390781A1, “CERTAIN (2S)-N-[(1S)-1-CYANO-2-PHENYLETHYL]-1,4-OXAZEPANE-2-CARBOXAMIDES FOR TREATING ANCA ASSOCIATED VASCULITIDES” (INSMED INCORPORATED, priority 2018, published 2020).

How the values were obtained:
Assay type in all cases: cell-based, human
[1] = test system: surface proteinase 3 (PR3); experiment: Surface PR3 expression by flow cytometry in neutrophils differentiated in the presence of INS1007; conditions: for percentage of cells with no detectable surface PR3 expression: untreated approximately 30-40%, FIG. 2
Protocol: (§1) To evaluate the pharmacological effects of INS1007 on surface PR3 expression, total PR3 expression, and NSP activity, stem cells were differentiated to neutrophils in the presence of INS1007 at increasing concentrations. Primary bone marrow (BM) or umbilical cord blood (UC) derived CD34^+ neutrophil progenitor cells (AllCells; Alameda, Calif.) were cultured for 7 days in STEMSPAN™ SFEM media (Stemcell Technologies; Tukwila, Wash.) supplemented with recombinant human Stem Cell Factor (Peprotech; Rocky Hill, N.J.) and recombinant human IL-3 (Peprotech). The cells were differentiated in culture for another 7 days in STEMSPAN® SFEM media (Stemcell Technologies) with recombinant human Granulocyte Colony Stimulating Factor (Peprotech), plus increasing concentrations of INS1007 (0-10 μM). At the end of the differentiation/treatment period, cells were harvested for analysis.
(§2) Differentiated neutrophils were harvested for flow cytometry to quantify PR3 expression on the surface of neutrophils (FIGS. 1 and 2) and neutrophil total PR3 expression (FIG. 3).
After harvest, the cells were resuspended in FACS staining buffer and Fc receptors were blocked for 30 min at 4° C. Cells were stained for 30 min with a mouse anti-PR3 monoclonal antibody (Abcam: Cambridge, Mass.) or a mouse monoclonal IgG isotype control (Abcam), followed by a Cy5-conjugated goat anti-mouse IgG secondary antibody (Abcam), and then analyzed using a GUAVA® EASYCYTEI^M 6HT flow cytometer (Millipore; Billerica, Mass.).

[2] = test system: total proteinase 3 (PR3); experiment: Total PR3 expression (surface and intracellular) by flow cytometry in differentiated neutrophils; conditions: for total PR3 levels: FIG. 3
Protocol: as §1, §2

[3] = test system: neutrophil elastase (NE); experiment: NE activity in lysates of neutrophils differentiated in the presence of INS1007; conditions: highest concentration tested (10 μM); FIG. 5
Protocol: (§3) To evaluate the pharmacological effects of INS1007 on surface PR3 expression, total PR3 expression, and NSP activity, stem cells were differentiated to neutrophils in the presence of INS1007 at increasing concentrations. Primary bone marrow (BM) or umbilical cord blood (UC) derived CD34^+ neutrophil progenitor cells (AllCells; Alameda, Calif.) were cultured for 7 days in STEMSPAN™ SFEM media (Stemcell Technologies; Tukwila, Wash.) supplemented with recombinant human Stem Cell Factor (Peprotech; Rocky Hill, N.J.) and recombinant human IL-3 (Peprotech). […]
(§4) Neutrophils in a separate aliquot of harvested neutrophils were lysed with 10% (v/v) Triton X-100 in PBS and the lysates were added to 96-well plates. Peptide substrates for NE (N-Methoxysuccinyl-Ala-Ala-Pro-Val-7-amido-4-methylcoumarin; Sigma-Aldrich; St. Louis, Mo.), for PR3 (aminobenzoyl-Val-Ala-Asp-Cys-Ala-Asp-Gln-Lys(2,4-dinitrophenyl); GenScript; Piscataway, N.J.), and for CatG (N-Succinyl-Ala-Ala-Pro-Phe p-nitroanilide; Sigma) were added, and either fluorescence or absorbance was quantified using a SYNERGY™ microplate reader (BioTek; Winooski, Vt.). […] A portion of cell lysate samples was retained for protein quantification using a PIERCE™ BCA Protein Assay Kit (Thermo Fisher) according to the manufacturer's instructions. […]

[4] = test system: proteinase 3 (PR3); experiment: PR3 activity in lysates of neutrophils differentiated in the presence of INS1007; conditions: highest concentration tested (10 μM); FIG. 6
Protocol: as §3, §4

[5] = test system: cathepsin G (CatG); experiment: CatG activity in lysates of neutrophils differentiated in the presence of INS1007; conditions: highest concentration tested (10 μM); data not shown
Protocol: as §3, §4

[6] = test system: surface PR3; experiment: Fluorescence microscopy of surface PR3 on differentiated neutrophils; conditions: differentiation in the presence of 10 μM INS1007; neutrophils derived from bone marrow or umbilical cord stem cells (both cell types)
Protocol: as §1, with “At the end of the differentiation/treatment period, cells were harvested for analysis.” left out
In a separate experiment, neutrophils were harvested, stained for 30 min. with either a mouse anti-PR3 monoclonal antibody (Abcam; Cambridge, Mass.) or a mouse monoclonal IgG isotype control (Abcam), followed by a Cy5-conjugated goat anti-mouse IgG secondary antibody (Abcam), fixed in 4% formaldehyde, and mounted to glass slides with PROLONG® Diamond Antifade Mountant with DAPI (Thermo Fisher; Waltham, Mass.). Samples were imaged with an Axio fluorescence microscope (Zeiss; Oberkochen, Germany) using constant settings while imaging samples from different treatment conditions.

Which results are given for Cn1c(=O)oc2ccc(-c3ccc(C[C@@H](C#N)NC(=O)[C@@H]4CNCCCO4)cc3)cc21 [INS1007, (2S)—N-{(1S)-1-cyano-2-[4-(3-methyl-2-oxo-2,3-dihydro-1,3-benzoxazol-5-yl)phenyl]ethyl}-1,4-oxazepane-2-carboxamide]?
percentage of cells with no detectable surface PR3 expression ([1]; neutrophils derived from bone marrow stem cells): ~80%; maximum reduction of surface PR3 expression (MFI, percent of untreated cells) ([1]; neutrophils derived from both bone marrow and umbilical cord blood stem cells, INS1007 0-10 μM, FIG. 1): greater than 60%; percentage of cells with no detectable surface PR3 expression ([1]; neutrophils derived from umbilical cord blood stem cells): more than 50%; total PR3 levels ([2]; bone marrow stem cell-derived neutrophils, not completely concentration-dependent): significantly reduced; percentage of cells with positive total PR3 expression ([2]; neutrophils derived from either umbilical cord blood or bone marrow stem cells, FIG. 4): did not reduce; total PR3 levels ([2]; umbilical cord blood stem cell-derived neutrophils): did not reach statistically significant reduction; decrease of NE activity [3]: > 90%; decrease of PR3 activity [4]: > 90%; decrease of CatG activity [5]: greater than 75%; surface PR3 (fluorescence microscopy) [6]: markedly reduced
